# From patent publication US20250228916A1, “A METHOD OF TREATING OR PREVENTING SEPSIS” (priority 2016, published 2025)
# Columns and labels:
# [1] = molecular target: vascular endothelial αVβ3 integrin on sheared human aortic endothelial cells (human)
# [2] = tested on: αVβ3 on human endothelial cells; assay: Binding assay: L. lactis expressing ClfA binding to sheared human endothelial cells; format: cell-based; conditions: pretreatment of the human endothelial cells with cilengitide; FIG. 6B
# Protocol: (§1) Sheared HAoECs were seeded into wells of a 96 well tissue culture plate at a density of 2.5×10^4 cells per well in a volume of 100 μl. Experiments were carried out either in the presence or absence of TNFα at 10 ng/ml. The HAoECs were incubated at 37° C. 5% CO2 for 4 hours to facilitate attachment and cell-cell contact on the plate. Following the 4 hr incubation the media was removed and 100 μl of human platelet poor plasma (PPP), 4 mg/ml fibrinogen or 1 mg/ml IgG was added to each well and incubated for 1 hr at 37° C. 5% CO2. The wells were washed with PBS and the wells were blocked with 100 μl of 1% […] for 1 hr at 37° C. Finally the wells were washed with 100 μl of TBS and 100 μl of SYBR green II stained bacteria was added per well at a MOI of 400. The cells were incubated for a further 1 hr at 37° C. 5% CO2 and then read on a fluorescent plate reader (1420 Victor V3, Perkin Elmer, Dublin, Ireland) at 485/535 nm. The bacteria were then removed gently by pipette and the plate washed with 100 μl TBS/well. The plate was then read again at 485/535 nm. Adhered bacteria were calculated as a percent remaining from the initial reading multiplied by the number of bacteria added.
# purified receptor a Vb3 = purified receptor a Vb3 (Homo sapiens, UniProt P05106+P06756); assay: L. lactis ClfA binding to purified receptor αVβ3; conditions: pretreating the purified receptor with cilengitide; FIG. 6C
# [3] = tested on: S. aureus adhesion to murine endothelial cells; assay: In vivo venous mesenteric perfusion model of bacterial adhesion; conditions: cilengitide administered intravenously; FIG. 7C, 7E
# human endothelial cells [4] = assay: Proliferation assay, S. aureus infected human endothelial cells; format: cell-based; conditions: 0.05 μM cilengitide, 24 hrs; FIG. 8H
# Protocol: Sheared HAoECs were seeded into a six well plate at 150,000 cells per well in 1.6 ml media containing 10 ng/ml of TNFα. The cells were incubated for 4 hrs at 37° C. in a 5% CO2. […] The media was removed and the well washed with antibiotic free media. To each well 1.6 ml of antibiotic free media was added containing S. aureus Newman or S. aureus ΔClfA for a MOI of 400. The cells were incubated at 37° C. in for 24 hrs. Following incubation the media was removed from the cells and they were washed 4 times with warm PBS. The cells were detached from the 6 well plate by trypsinization counted on a haemocytometer.
# human endothelial cells [5] = assay: Apoptosis assay (Annexin V), S. aureus infected human endothelial cells; format: cell-based; conditions: cilengitide at 0.05 µM for 1 hr; FIG. 9B
# Protocol: (§2) Sheared HAoECs in a 6 well plate were exposed to 1 ng of TNFα per 25,000 endothelial cells and were incubated for 4 hrs at 37° C. The TNFα containing media was removed and 1 ml of 4 mg/ml Fg in media at 37° C. for 1 hr. Media was removed and replaced with 1 ml of antibiotic free media containing S. aureus Newman WT or Newman ΔClfA to a MOI of 400 in a final volume per well of 2 ml. The cells were incubated for 24 hrs at 37° C. Following incubation the media was removed and the wells washed 3 times with warm PBS. Cells were detached by trypsinization and pelleted. The cell pellet was washed in ice cold (4° C.) PBS before being stained with a TACS™ Annexin V Apoptosis Kit. The cells were analysed on a flow cytometer (BD FACSCanto™ II Flow Cytometer). The experiment was repeated to test αVβ3 blocking by cilengitide at 0.05 µM for 1 hr between the TNFα exposure and the addition of 4 mg/ml fibrinogen for 1 hr. This experiment was repeated using E. coli and E. coli AompA instead of S. aureus Newman WT or Newman ΔClfA.
# human endothelial cells [6] = assay: Transwell permeability assay, S. aureus infected human endothelial cells; format: cell-based; conditions: cilengitide at 0.05 μM for 1 hr; FIG. 10
# Protocol: (§3) Endothelial barrier permeability was assessed using a transwell apparatus with the slight modifications. Sheared HAoECs were trypsinized and seeded into hanging inserts, were placed in a 6 well plate. To the lower (abluminal) chamber of the plate 4 ml of cell media was added and 2 ml of media containing 200,000 cells/ml was added to the top (luminal) chamber. The wells plates were incubated at 37° C. in a 5% CO2 and humidified atmosphere overnight to form a confluent monolayer. Media in the abluminal chamber was changed to antibiotic free media while simultaneously the media in the luminal chamber was removed and washed with antibiotic free media. Cells were infected with S. aureus Newman WT and S. aureus ΔClfA in 2 ml of antibiotic free media to infect the cells at a MOI of 400 for 3 hrs at 37° C. FITC dextran (40 kDa) was added to the top chamber for a final concentration of 250 μg/ml in 2 ml. Media samples from the abluminal chamber were taken 24 hrs after infection measured on a plate reader at fluorescence Ex/Em 485/535 nm. The experiment was repeated to test αVβ3 blocking by cilengitide at 0.05 μM for 1 hr between the TNFα exposure and the addition of 4 mg/ml fibrinogen in place of plasma for 1 hr. This experiment was repeated using E. coli and E. coli AompA instead of S. aureus Newman WT or Newman ΔClfA.
# human endothelial cells [7] = assay: MTT cytotoxicity assay; format: cell-based; conditions: 0.05 μM cilengitide, FIG. 12
# Protocol: Cell metabolic activity was measured using a MTT ((3-(4,5-dimethylthiazol-2-yl)-2,5-diphenyltetrazolium bromide) assay kit. Sheared HAoECs were seeded into a clear 96 well microtitre plate at a density of 2.5×10^4 cells/well in 100 μl in media containing 10 ng/ml TNFα. The cells were incubated for 4 hrs at 37° C. Media was removed from the wells after 4 hrs and replaced with 100 μl of fresh cell media, cell media containing a vehicle or cell media containing 0.05 μM cilengitide. The plate was incubated for a further one hour before the media was changed for 100 μl of fresh cell media with 10 μl of 12 mM MTT stock and the plate 10 incubated at 37° C. for 4 hrs. All but 25 μl of liquid was removed from each well and 10 μl of DMSO was added per well. The plate was incubated for 10 minutes at 37° C. before being read on a plate reader for absorbance at 570 nm.
# [8] = tested on: αVβ3 integrin on endothelial cells; assay: E. coli binding to endothelial cells, static assay; format: cell-based, human; conditions: cilengitide 0.05 μM; FIG. 14A
# Protocol: as §1
# [9] = tested on: αVβ3 integrin on sheared endothelial cells; assay: E. coli binding to sheared endothelial cells under perfusion; format: cell-based, human; conditions: cilengitide 0.05 μM; E. coli perfused at 10 dyns for 5 minutes; FIG. 14B
# endothelial cells [10] = assay: Transwell permeability assay, E. coli infected endothelial cells; format: cell-based, human; conditions: preincubating the endothelial cells with cilengitide; FIG. 16
# Protocol: as §3
# endothelial cells [11] = assay: VE-cadherin immunostaining of tight junction formation after E. coli infection; format: cell-based, human; conditions: pre-treating the endothelial cells with cilengitide; FIG. 17E
# endothelial cells [12] = assay: Apoptosis assay (Annexin V flow cytometry), E. coli infected endothelial cells
# Protocol: as §2
# [13] = tested on: vascular endothelial αVβ3 integrin receptor; assay: Adhesion of gram positive and gram negative bacteria to vascular endothelial cells; format: cell-based, human; conditions: blocking the αVβ3 receptor
# Protocol: as §1
# Chain of purified receptor a Vb3 (P06756 31-889 limits assumed): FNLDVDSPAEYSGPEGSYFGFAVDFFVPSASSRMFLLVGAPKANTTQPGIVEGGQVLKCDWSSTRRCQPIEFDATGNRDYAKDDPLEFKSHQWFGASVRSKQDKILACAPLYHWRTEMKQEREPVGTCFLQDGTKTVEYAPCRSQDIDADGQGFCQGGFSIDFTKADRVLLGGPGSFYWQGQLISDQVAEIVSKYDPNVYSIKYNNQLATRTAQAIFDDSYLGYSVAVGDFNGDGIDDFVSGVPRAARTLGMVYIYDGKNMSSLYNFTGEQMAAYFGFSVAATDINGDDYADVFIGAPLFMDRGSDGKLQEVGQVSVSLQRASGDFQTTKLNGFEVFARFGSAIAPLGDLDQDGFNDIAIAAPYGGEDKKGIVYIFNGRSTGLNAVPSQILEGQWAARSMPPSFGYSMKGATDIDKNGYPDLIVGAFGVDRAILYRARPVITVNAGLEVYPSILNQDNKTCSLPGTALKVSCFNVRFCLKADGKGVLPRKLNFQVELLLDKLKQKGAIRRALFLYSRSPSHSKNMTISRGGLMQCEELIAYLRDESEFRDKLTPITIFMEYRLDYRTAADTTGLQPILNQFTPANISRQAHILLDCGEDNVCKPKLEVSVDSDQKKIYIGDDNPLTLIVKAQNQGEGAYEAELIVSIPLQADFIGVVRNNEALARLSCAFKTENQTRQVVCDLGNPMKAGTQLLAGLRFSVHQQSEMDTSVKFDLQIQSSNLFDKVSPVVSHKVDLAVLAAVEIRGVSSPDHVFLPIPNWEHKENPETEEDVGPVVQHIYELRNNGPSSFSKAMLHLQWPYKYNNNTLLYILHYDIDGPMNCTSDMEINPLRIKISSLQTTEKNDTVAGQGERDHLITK
# Chain of purified receptor a Vb3 (P06756 891-1048 partner limits assumed): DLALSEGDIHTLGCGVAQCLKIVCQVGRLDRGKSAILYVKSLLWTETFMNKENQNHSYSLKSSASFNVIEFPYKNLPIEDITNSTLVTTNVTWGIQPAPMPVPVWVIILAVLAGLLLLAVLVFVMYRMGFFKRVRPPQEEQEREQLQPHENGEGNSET
# Chain of purified receptor a Vb3 (P05106 27-788): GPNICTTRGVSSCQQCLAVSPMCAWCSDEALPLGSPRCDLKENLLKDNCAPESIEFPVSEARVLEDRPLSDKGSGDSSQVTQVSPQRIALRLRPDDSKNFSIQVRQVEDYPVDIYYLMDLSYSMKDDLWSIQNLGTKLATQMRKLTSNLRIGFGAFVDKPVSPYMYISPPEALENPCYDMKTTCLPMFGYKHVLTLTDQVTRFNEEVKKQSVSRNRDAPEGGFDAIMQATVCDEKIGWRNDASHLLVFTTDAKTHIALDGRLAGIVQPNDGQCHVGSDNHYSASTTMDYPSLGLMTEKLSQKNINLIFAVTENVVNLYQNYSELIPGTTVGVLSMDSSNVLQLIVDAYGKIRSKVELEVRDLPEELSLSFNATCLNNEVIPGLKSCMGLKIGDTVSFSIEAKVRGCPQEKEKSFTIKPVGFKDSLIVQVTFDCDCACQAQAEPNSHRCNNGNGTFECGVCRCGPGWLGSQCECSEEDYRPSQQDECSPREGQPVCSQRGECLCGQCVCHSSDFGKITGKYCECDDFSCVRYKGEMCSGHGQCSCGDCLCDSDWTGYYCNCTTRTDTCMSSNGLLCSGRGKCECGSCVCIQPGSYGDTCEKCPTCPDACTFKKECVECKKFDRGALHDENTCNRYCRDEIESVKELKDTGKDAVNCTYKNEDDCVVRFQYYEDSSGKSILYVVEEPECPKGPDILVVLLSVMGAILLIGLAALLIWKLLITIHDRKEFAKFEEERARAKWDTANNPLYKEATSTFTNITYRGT
Compound,endothelial cell permeability (% increase in permeability) [1],binding of L. lactis expressing ClfA to human endothelial cells [2],L. lactis ClfA binding to purified receptor αVβ3 (purified receptor a Vb3),S. aureus binding to murine endothelial cells [3],human endothelial cell proliferation after S. aureus infection (human endothelial cells [4]),S. aureus induced apoptosis of human endothelial cells (human endothelial cells [5]),permeability of the human endothelial barrier following S. aureus infection (human endothelial cells [6]),toxicity in human endothelial cells (human endothelial cells [7]),"E. coli binding to endothelial cells, static assay [8]","E. coli binding to sheared endothelial cells, perfused [9]",E. coli induced permeability of endothelial cells (endothelial cells [10]),VE-cadherin tight junction formation following E. coli infection (endothelial cells [11]),"viability of endothelial cells (endothelial cells [12]; cilengitide alone, no infection)","E. coli induced apoptosis of endothelial cells (endothelial cells [12]; preincubation of endothelial cells with cilengitide, Annexin V, FIG. 17F)",adhesion of both gram positive and gram negative bacteria to vascular endothelial cells [13]
Escherichia coli outer membrane protein A,30,,,,,,,,,,,,,,
"CC(C)[C@H]1C(=O)N[C@@H](CCCN=C(N)N)C(=O)NCC(=O)N[C@@H](CC(=O)O)C(=O)N[C@H](Cc2ccccc2)C(=O)N1C [cilengitide, cyclo(-RGDf(NMe)V-)]",,significantly reduced,significantly inhibited,failed to significantly bind,significantly recovered,significantly reduced,significantly reduced,does not cause toxicity,significantly inhibited,significantly inhibited,significantly reduces permeability,recovery of tight junction formation,failed to affect,significant reduction,dose-dependent reduction in adhesion
